{"source": "patent US4443468A", "about": "“Benzofuran derivatives, process for their preparation and their therapeutic applications” (Laboratoires Jacques Logeais, priority 1978, dated 1984)", "format_in_all_cases": "in vivo", "key": {"Acute toxicity in mice": {"assay": "Acute toxicity in mice", "details": "mouse, in vivo, single dose", "method": "(§1) (a) Acute toxicity in mice\n(§2) Each compound was administered orally, intra-peritoneally, or intravenously as a single dose."}, "[1]": {"test_system": "dysrhythmia on central stimulation", "assay": "Dysrhythmia on central stimulation in rabbits", "method": "The anti-dysrhythmic activity of the compounds of the formula (I) was evaluated according to the following pharmacological tests: […]"}, "[2]": {"test_system": "aconitine induced dysrhythmias", "assay": "Aconitine induced dysrhythmias in rats", "method": "(§3) The anti-dysrhythmic activity of the compounds of the formula (I) was evaluated according to the following pharmacological tests:\naconitine induced dysrhythmias in rats: this agent has a deeply perturbating effect on the ionic permeability of the membranes;"}, "[3]": {"test_system": "maximum stimulation heart rate (FMS)", "assay": "Maximum stimulation heart rate (FMS) in rabbits", "method": "as §3\nmaximum stimulation heart rate (FMS)\nThe FMS, as determined in vivo in rabbits by cardiac stimulation by means of a stimulation probe placed in the left auricular cavity, provides an overall determination of the duration of the refractory period of the conductive routes and of the fibres of the myocardium."}, "[4]": {"test_system": "anoxia induced dysrhythmias", "assay": "Anoxia induced dysrhythmias in rats, after pre-treatment with a subliminal dosage of aconitine", "method": "as §3\nanoxia induced dysrhythmias in rats, after pre-treatment with a subliminal dosage of aconitine (combination of the effects of a sympathetic stimulation with those due to perturbations of ionic conductions);"}, "mice": {"test_system": "mice", "assay": "Acute toxicity in mice", "details": "single dose, behavior observed", "method": "as §1, §2"}, "[5]": {"test_system": "ouabaine induced dysrhythmias", "assay": "Ouabaine induced dysrhythmias in guinea-pigs", "details": "10-20 mg/kg i.v., guinea-pig", "method": "as §3\nouabaine induced dysrhythmias in guinea-pigs: at toxic dosages, ouabaine affects transmembrane ionic exchanges; on the other hand, it induces a concomitant sympathetic activation."}, "[6]": {"test_system": "dysrhythmias induced by localized ischemia", "assay": "Method according to Harris, in dogs (coronary ligation)", "details": "10 mg/kg i.v.", "method": "as §3\nmethod according to Harris, in dogs: coronary ligation and dysrhythmias induced by localized ischemia."}, "[7]": {"details": "intravenous, read-out: LD50, i.v."}, "[8]": {"details": "ip, intra-peritoneal, read-out: LD50, i.p."}}, "note": "Where a name gives a salt, the structure may show the parent alone. Read-outs that look alike come from different tables or passages of the source.", "data": [{"smiles": "NC1=NCC(c2cc3ccccc3o2)C1", "note": "(stereo not shown) [Example 1, 2-Amino-4-(2-benzofuryl)Δ-1-pyrroline hydrochloride]", "values": [{"measurement": "LD50", "setting": "Acute toxicity in mice; [7]", "value": 46, "unit": "mg/kg"}, {"measurement": "LD50", "setting": "Acute toxicity in mice; [8]", "value": 58, "unit": "mg/kg"}, {"measurement": "LD50", "setting": "Acute toxicity in mice; oral, read-out: LD50, p.o.", "value": 115, "unit": "mg/kg"}]}, {"smiles": "CNC1=NCC(c2cc3ccccc3o2)C1", "note": "(stereo not shown) [Example 2, 2-Methylamino-4-(2-benzofuryl)Δ-1-pyrroline hydrochloride]", "values": [{"measurement": "LD50", "setting": "Acute toxicity in mice; [8]", "value": 58, "unit": "mg/kg"}, {"measurement": "LD50", "setting": "Acute toxicity in mice; oral, read-out: LD50, p.o.", "value": "> 200", "unit": "mg/kg"}, {"measurement": "Central stimulation Rabbit", "setting": "[1]; 3 mg/kg i.v.", "value": "+"}, {"measurement": "Aconitine Rat", "setting": "[2]; 10 mg/kg i.v.", "value": "+"}, {"measurement": "FMS Rabbit", "setting": "[3]; 7.5 mg/kg i.v.", "value": "+"}]}, {"smiles": "CC(C)NC1=NCC(c2cc3ccccc3o2)C1", "note": "(stereo not shown) [Example 3, 2-Isopropylamino-4-(2-benzofuryl)Δ-1-pyrroline hydrochloride]", "values": [{"measurement": "LD50", "setting": "Acute toxicity in mice; [8]", "value": 58, "unit": "mg/kg"}, {"measurement": "LD50", "setting": "Acute toxicity in mice; oral, read-out: LD50, p.o.", "value": 200, "unit": "mg/kg"}, {"measurement": "Anoxia Rat", "setting": "[4]; 10 mg/kg i.v.", "value": "+"}]}, {"smiles": "CN(C)C1=NCC(c2cc3ccccc3o2)C1", "note": "(stereo not shown) [Example 4, 2-Dimethylamino-4-(2-benzofuryl)Δ-1-pyrroline hydrochloride]", "values": [{"measurement": "LD50", "setting": "Acute toxicity in mice; [7]", "value": 38.5, "unit": "mg/kg"}, {"measurement": "LD50", "setting": "Acute toxicity in mice; oral, read-out: LD50, p.o.", "value": 240, "unit": "mg/kg"}, {"measurement": "Remarks (acute toxicity)", "setting": "mice", "value": "convulsions"}, {"measurement": "Central stimulation Rabbit", "setting": "[1]; 5 mg/kg i.v.", "value": "++"}, {"measurement": "Ouabaine Cobaye", "setting": "[5]", "value": "+"}, {"measurement": "Anoxia Rat", "setting": "[4]; 10-20 mg/kg i.v.", "value": "++"}, {"measurement": "Harris Ligation Dog", "setting": "[6]", "value": "+"}, {"measurement": "FMS Rabbit", "setting": "[3]; 2.5 mg/kg i.v.", "value": "+"}]}, {"smiles": "CCN(CC)C1=NCC(c2cc3ccccc3o2)C1", "note": "(stereo not shown) [Example 5, 2-Diethylamino-4-(2-benzofuryl)Δ-1-pyrroline fumarate]", "values": [{"measurement": "LD50", "setting": "Acute toxicity in mice; [8]", "value": 58, "unit": "mg/kg"}, {"measurement": "LD50", "setting": "Acute toxicity in mice; oral, read-out: LD50, p.o.", "value": 180, "unit": "mg/kg"}]}, {"smiles": "c1ccc(NC2=NCC(c3cc4ccccc4o3)C2)cc1", "note": "(stereo not shown) [Example 6, 2-Anilino-4-(2-benzofuryl)Δ-1-pyrroline hydrochloride]", "values": [{"measurement": "LD50", "setting": "Acute toxicity in mice; [8]", "value": 58, "unit": "mg/kg"}, {"measurement": "LD50", "setting": "Acute toxicity in mice; oral, read-out: LD50, p.o.", "value": 110, "unit": "mg/kg"}, {"measurement": "Remarks (acute toxicity)", "setting": "mice", "value": "Hyperesthesia"}, {"measurement": "Central stimulation Rabbit", "setting": "[1]; 2.5 mg/kg i.v.", "value": "+"}, {"measurement": "Anoxia Rat", "setting": "[4]; i.v., dose not given", "value": 0}, {"measurement": "FMS Rabbit", "setting": "[3]; 2.5 mg/kg i.v.", "value": "+"}]}, {"smiles": "c1ccc(CCNC2=NCC(c3cc4ccccc4o3)C2)cc1", "note": "(stereo not shown) [Example 7, 2-Phenethylamino-4-(2-benzofuryl)Δ-1-pyrroline hydrochloride]", "values": [{"measurement": "LD50", "setting": "Acute toxicity in mice; [8]", "value": 98, "unit": "mg/kg"}, {"measurement": "LD50", "setting": "Acute toxicity in mice; oral, read-out: LD50, p.o.", "value": "> 200", "unit": "mg/kg"}, {"measurement": "Remarks (acute toxicity)", "setting": "mice", "value": "Convulsions"}, {"measurement": "Central stimulation Rabbit", "setting": "[1]; i.v., dose not given", "value": 0}, {"measurement": "Aconitine Rat", "setting": "[2]; 5 mg/kg i.v.", "value": "+"}, {"measurement": "FMS Rabbit", "setting": "[3]; 2 mg/kg i.v.", "value": "+"}]}, {"smiles": "c1ccc2oc(C3CN=C(N4CCCC4)C3)cc2c1", "note": "(stereo not shown) [Example 8, 2-Pyrrolidino-4-(2-benzofuryl)Δ-1-pyrroline hydrochloride]", "values": [{"measurement": "LD50", "setting": "Acute toxicity in mice; [8]", "value": 76, "unit": "mg/kg"}, {"measurement": "LD50", "setting": "Acute toxicity in mice; oral, read-out: LD50, p.o.", "value": 200, "unit": "mg/kg"}, {"measurement": "Anoxia Rat", "setting": "[4]; 10 mg/kg i.v.", "value": "+"}, {"measurement": "Aconitine Rat", "setting": "[2]; 10 mg/kg i.v.", "value": "+"}]}, {"smiles": "c1ccc2oc(C3CN=C(N4CCOCC4)C3)cc2c1", "note": "(stereo not shown) [Example 9, 2-Morpholino-4-(2-benzofuryl)Δ-1-pyrroline hydrochloride]", "values": [{"measurement": "LD50", "setting": "Acute toxicity in mice; [8]", "value": 142, "unit": "mg/kg"}, {"measurement": "LD50", "setting": "Acute toxicity in mice; oral, read-out: LD50, p.o.", "value": "> 200", "unit": "mg/kg"}, {"measurement": "Anoxia Rat", "setting": "[4]; i.v., dose not given", "value": 0}]}, {"smiles": "CN1CCN(C2=NCC(c3cc4ccccc4o3)C2)CC1", "note": "(stereo not shown) [Example 10, 2-(4-Methyl-piperazino)-4-(2-benzofuryl)Δ-1-pyrroline methanesulfonate]", "values": [{"measurement": "LD50", "setting": "Acute toxicity in mice; [8]", "value": 142, "unit": "mg/kg"}, {"measurement": "LD50", "setting": "Acute toxicity in mice; oral, read-out: LD50, p.o.", "value": "> 200", "unit": "mg/kg"}, {"measurement": "Anoxia Rat", "setting": "[4]; 10 mg/kg i.v.", "value": "+"}]}]}
